# Measurements as given in ChEMBL document CHEMBL5241078, “Emerging trends of receptor-mediated tumor targeting peptides: A review with perspective from molecular imaging modalities” (Eur J Med Chem, 2021).
# Biological target: T1, Gastrin/cholecystokinin type B receptor (Homo sapiens, UniProt P32239)
# T1 sequence (P32239 whole entry): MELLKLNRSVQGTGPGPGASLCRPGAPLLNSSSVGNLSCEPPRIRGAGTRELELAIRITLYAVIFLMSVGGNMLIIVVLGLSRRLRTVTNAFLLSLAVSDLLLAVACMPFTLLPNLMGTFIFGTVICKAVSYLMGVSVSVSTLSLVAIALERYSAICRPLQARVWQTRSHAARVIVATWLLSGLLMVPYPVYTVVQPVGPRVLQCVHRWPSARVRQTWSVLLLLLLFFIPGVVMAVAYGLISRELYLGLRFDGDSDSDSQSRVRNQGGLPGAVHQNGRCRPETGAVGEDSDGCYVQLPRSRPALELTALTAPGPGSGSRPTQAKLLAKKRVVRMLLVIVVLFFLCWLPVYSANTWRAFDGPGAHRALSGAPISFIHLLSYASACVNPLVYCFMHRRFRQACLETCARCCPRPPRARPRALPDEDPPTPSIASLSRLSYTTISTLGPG
# Assay: Binding affinity to human CCK2R expressed in human A-431 cells
# Format: cell-based
row,IC50 [nM],SMILES
1,2.54,CSCCC[C@H](NC(=O)[C@H](Cc1c[nH]c2ccccc12)NC(=O)[C@H]1CCCCNC(=O)[C@H](NC(=O)c2ccc(NN)nc2)CCC(=O)N[C@@H](C)C(=O)N[C@@H](Cc2ccc(O)cc2)C(=O)N1)C(=O)N[C@@H](CC(=O)O)C(=O)N[C@@H](Cc1ccccc1)C(N)=O
2,3.23,CCCCC[C@H](NC(=O)[C@H](Cc1c[nH]c2ccccc12)NC(=O)[C@H]1CCCCNC(=O)[C@H](NC(=O)c2ccc(NN)nc2)CCC(=O)N[C@@H](C)C(=O)N[C@@H](Cc2ccc(O)cc2)C(=O)N1)C(=O)N[C@@H](CC(=O)O)C(=O)N[C@@H](Cc1ccccc1)C(N)=O
